Patent US10004701B2, “Methods and compositions for treating infection” (UNIVERSITY OF ROCHESTER, priority 2012, dated 2018)
Structures can show the parent of a compound that is named as a salt. Where two headings read alike, the source gives them in different places.

Key:
Assay in all cases: AK assay 384-well format, Prestwick library screening
E. faecium = type: cell-based, Enterococcus faecium; conditions: for fold induction at 50 µM: Enterococcus faecium, 3 h
[1] = tested on: S. aureus strain USA300-0114; type: cell-based, Staphylococcus aureus; conditions: for fold induction at 50 µM: Staphylococcus aureus, USA300, 3 h
K. pneumoniae = type: cell-based, Klebsiella pneumoniae; conditions: for fold induction at 50 µM: Klebsiella pneumoniae, 3 h
[2] = tested on: A. baumannii strain 98-37-09; type: cell-based, Acinetobacter baumannii; conditions: for fold induction at 50 µM: Acinetobacter baumannii, 983709, 3 h
P. aeruginosa = type: cell-based, Pseudomonas aeruginosa; conditions: for fold induction at 50 µM: Pseudomonas aeruginosa, 3 h
E. cloacae = type: cell-based, Enterobacter cloacae; conditions: for fold induction at 50 µM: Enterobacter cloacae, 3 h
E. coli = type: cell-based, Escherichia coli; conditions: for fold induction at 50 µM: Escherichia coli, 3 h
[3] = planktonic E. faecium, 50 μM final drug concentration, positive cutoff 3-fold increase, read-out: AK-based Prestwick library screening result, E. faecium (fold increase in extracellular AK activity)
[4] = planktonic S. aureus, 50 μM final drug concentration, positive cutoff 3-fold increase, read-out: AK-based Prestwick library screening result, S. aureus (fold increase in extracellular AK activity)
[5] = planktonic K. pneumoniae, 50 μM final drug concentration, positive cutoff 3-fold increase, read-out: AK-based Prestwick library screening result, K. pneumoniae (fold increase in extracellular AK activity)
[6] = planktonic A. baumannii, 50 μM final drug concentration, positive cutoff 3-fold increase, read-out: AK-based Prestwick library screening result, A. baumannii (fold increase in extracellular AK activity)
[7] = planktonic P. aeruginosa, 50 μM final drug concentration, positive cutoff 3-fold increase, read-out: AK-based Prestwick library screening result, P. aeruginosa (fold increase in extracellular AK activity)
[8] = planktonic E. cloacae, 50 μM final drug concentration, positive cutoff 3-fold increase, read-out: AK-based Prestwick library screening result, E. cloacae (fold increase in extracellular AK activity)
[9] = planktonic E. coli, 50 μM final drug concentration, positive cutoff 3-fold increase, read-out: AK-based Prestwick library screening result, E. coli (fold increase in extracellular AK activity)
[10] = 50 μM final drug concentration, 384-well format, cutoff for positive-scoring molecules 3-fold increase, read-out: AK-based Prestwick Library Screening Results, E. faecium (increase in extracellular AK activity)
[11] = 50 μM final drug concentration, 384-well format, cutoff for positive-scoring molecules 3-fold increase, read-out: AK-based Prestwick Library Screening Results, S. aureus (increase in extracellular AK activity)
[12] = 50 μM final drug concentration, 384-well format, cutoff for positive-scoring molecules 3-fold increase, read-out: AK-based Prestwick Library Screening Results, K. pneumoniae (increase in extracellular AK activity)
[13] = 50 μM final drug concentration, 384-well format, cutoff for positive-scoring molecules 3-fold increase, read-out: AK-based Prestwick Library Screening Results, A. baumannii (increase in extracellular AK activity)
[14] = 50 μM final drug concentration, 384-well format, cutoff for positive-scoring molecules 3-fold increase, read-out: AK-based Prestwick Library Screening Results, P. aeruginosa (increase in extracellular AK activity)
[15] = 50 μM final drug concentration, 384-well format, cutoff for positive-scoring molecules 3-fold increase, read-out: AK-based Prestwick Library Screening Results, E. cloacae (increase in extracellular AK activity)
[16] = 50 μM final drug concentration, 384-well format, cutoff for positive-scoring molecules 3-fold increase, read-out: AK-based Prestwick Library Screening Results, E. coli (increase in extracellular AK activity)

## CC(C)[N+]1(C)[C@@H]2CC[C@H]1CC(OC(=O)C(CO)c1ccccc1)C2.[Br-] (stereo partly shown) [Ipratropium bromide]
E. faecium; planktonic E. faecium, 50 μM final drug concentration, […]
  AK-based Prestwick Library Screening Results, E. faecium (increase in extracellular AK activity): 0.9
[1]; planktonic S. aureus, 50 μM final drug concentration, […]
  AK-based Prestwick Library Screening Results, S. aureus (increase in extracellular AK activity): 0.7
K. pneumoniae; planktonic K. pneumoniae, 50 μM final drug concentration, […]
  AK-based Prestwick Library Screening Results, K. pneumoniae (increase in extracellular AK activity): 0.6
[2]; planktonic A. baumannii, 50 μM final drug concentration, […]
  AK-based Prestwick Library Screening Results, A. baumannii (increase in extracellular AK activity): 0.6
P. aeruginosa; planktonic P. aeruginosa, 50 μM final drug concentration, […]
  AK-based Prestwick Library Screening Results, P. aeruginosa (increase in extracellular AK activity): 0.8
E. cloacae; planktonic E. cloacae, 50 μM final drug concentration, […]
  AK-based Prestwick Library Screening Results, E. cloacae (increase in extracellular AK activity): 0.8
E. coli; planktonic E. coli, 50 μM final drug concentration, […]
  AK-based Prestwick Library Screening Results, E. coli (increase in extracellular AK activity): 0.6

## O=c1c(O)c(-c2ccc(O)cc2)oc2cc(O)cc(O)c12 [Kaempferol]
E. faecium; [3]
  fold induction at 50 µM: 1
[1]; [4]
  fold induction at 50 µM: 0.2
K. pneumoniae; [5]
  fold induction at 50 µM: 0.6
[2]; [6]
  fold induction at 50 µM: 0.5
P. aeruginosa; [7]
  fold induction at 50 µM: 0.6
E. cloacae; [8]
  fold induction at 50 µM: 1.6
E. coli; [9]
  fold induction at 50 µM: 0.5

## O=C1CN(/N=C/c2ccc([N+](=O)[O-])o2)C(=O)N1 [Nitrofurantoin]
E. faecium; [10]
  fold induction at 50 µM: 1
[1]; [11]
  fold induction at 50 µM: 0.4
K. pneumoniae; [12]
  fold induction at 50 µM: 0.8
[2]; [13]
  fold induction at 50 µM: 0.5
P. aeruginosa; [14]
  fold induction at 50 µM: 0.4
E. cloacae; [15]
  fold induction at 50 µM: 0.6
E. coli; [16]
  fold induction at 50 µM: 0.4

## CN(C)CCCN1c2ccccc2Sc2ccc(Cl)cc21 [Chlorpromazine hydrochloride]
E. faecium; planktonic E. faecium, 50 μM final drug concentration, 384-well, cutoff for positive-scoring molecules 3-fold increase, read-out: AK-based Prestwick Library Screening Results: E. faecium (increase in extracellular AK activity)
  fold induction at 50 µM: 1
[1]; planktonic S. aureus, 50 μM final drug concentration, 384-well, cutoff for positive-scoring molecules 3-fold increase, read-out: AK-based Prestwick Library Screening Results: S. aureus (increase in extracellular AK activity)
  fold induction at 50 µM: 1.4
K. pneumoniae; planktonic K. pneumoniae, 50 μM final drug concentration, 384-well, cutoff for positive-scoring molecules 3-fold increase, read-out: AK-based Prestwick Library Screening Results: K. pneumoniae (increase in extracellular AK activity)
  fold induction at 50 µM: 1.1
[2]; planktonic A. baumannii, 50 μM final drug concentration, 384-well, cutoff for positive-scoring molecules 3-fold increase, read-out: AK-based Prestwick Library Screening Results: A. baumannii (increase in extracellular AK activity)
  fold induction at 50 µM: 1.5
P. aeruginosa; planktonic P. aeruginosa, 50 μM final drug concentration, 384-well, cutoff for positive-scoring molecules 3-fold increase, read-out: AK-based Prestwick Library Screening Results: P. aeruginosa (increase in extracellular AK activity)
  fold induction at 50 µM: 1.1
E. cloacae; planktonic E. cloacae, 50 μM final drug concentration, 384-well, cutoff for positive-scoring molecules 3-fold increase, read-out: AK-based Prestwick Library Screening Results: E. cloacae (increase in extracellular AK activity)
  fold induction at 50 µM: 1.4
E. coli; planktonic E. coli, 50 μM final drug concentration, 384-well, cutoff for positive-scoring molecules 3-fold increase, read-out: AK-based Prestwick Library Screening Results: E. coli (increase in extracellular AK activity)
  fold induction at 50 µM: 1.4

## COc1ccc2c(c1)c(CC(=O)O)c(C)n2C(=O)c1ccc(Cl)cc1 [Indomethacin]
E. faecium; [10]
  fold induction at 50 µM: 0.9
[1]; [11]
  fold induction at 50 µM: 0.6
K. pneumoniae; [12]
  fold induction at 50 µM: 0.8
[2]; [13]
  fold induction at 50 µM: 1
P. aeruginosa; [14]
  fold induction at 50 µM: 0.9
E. cloacae; [15]
  fold induction at 50 µM: 1.2
E. coli; [16]
  fold induction at 50 µM: 0.9

## COc1c2c(cc3c1OCO3)CCN(C)C2 [Hydrocotarnine hydrobromide]
E. faecium; 50 μM final drug concentration, planktonic, cutoff for positive 3-fold increase, read-out: AK-based Prestwick Library Screening Results, E. faecium (fold increase in extracellular AK activity)
  fold induction at 50 µM: 1
[1]; 50 μM final drug concentration, planktonic, cutoff for positive 3-fold increase, read-out: AK-based Prestwick Library Screening Results, S. aureus (fold increase in extracellular AK activity)
  fold induction at 50 µM: 1
K. pneumoniae; 50 μM final drug concentration, planktonic, cutoff for positive 3-fold increase, read-out: AK-based Prestwick Library Screening Results, K. pneumoniae (fold increase in extracellular AK activity)
  fold induction at 50 µM: 0.9
[2]; 50 μM final drug concentration, planktonic, cutoff for positive 3-fold increase, read-out: AK-based Prestwick Library Screening Results, A. baumannii (fold increase in extracellular AK activity)
  fold induction at 50 µM: 1.3
P. aeruginosa; 50 μM final drug concentration, planktonic, cutoff for positive 3-fold increase, read-out: AK-based Prestwick Library Screening Results, P. aeruginosa (fold increase in extracellular AK activity)
  fold induction at 50 µM: 1.2
E. cloacae; 50 μM final drug concentration, planktonic, cutoff for positive 3-fold increase, read-out: AK-based Prestwick Library Screening Results, E. cloacae (fold increase in extracellular AK activity)
  fold induction at 50 µM: 1.4
E. coli; 50 μM final drug concentration, planktonic, […], read-out: AK-based Prestwick Library Screening Results, E. coli (fold increase in extracellular AK activity)
  fold induction at 50 µM: 1.2

## O=C(NCC(O)CO)c1c(I)c(C(=O)NCC(O)CO)c(I)c(N(CCO)C(=O)CO)c1I (stereo not shown) [Ioversol]
E. faecium; 50 μM final drug concentration, cutoff for positive-scoring molecules 3-fold increase, read-out: AK-based Prestwick Library Screening Results, E. faecium (fold increase in extracellular AK activity)
  fold induction at 50 µM: 1
[1]; 50 μM final drug concentration, cutoff for positive-scoring molecules 3-fold increase, read-out: AK-based Prestwick Library Screening Results, S. aureus (fold increase in extracellular AK activity)
  fold induction at 50 µM: 1.2
K. pneumoniae; 50 μM final drug concentration, cutoff for positive-scoring molecules 3-fold increase, read-out: AK-based Prestwick Library Screening Results, K. pneumoniae (fold increase in extracellular AK activity)
  fold induction at 50 µM: 1.2
[2]; 50 μM final drug concentration, cutoff for positive-scoring molecules 3-fold increase, read-out: AK-based Prestwick Library Screening Results, A. baumannii (fold increase in extracellular AK activity)
  fold induction at 50 µM: 1.3
P. aeruginosa; 50 μM final drug concentration, cutoff for positive-scoring molecules 3-fold increase, read-out: AK-based Prestwick Library Screening Results, P. aeruginosa (fold increase in extracellular AK activity)
  fold induction at 50 µM: 1.2
E. cloacae; 50 μM final drug concentration, cutoff for positive-scoring molecules 3-fold increase, read-out: AK-based Prestwick Library Screening Results, E. cloacae (fold increase in extracellular AK activity)
  fold induction at 50 µM: 1.4
E. coli; 50 μM final drug concentration, cutoff for positive-scoring molecules 3-fold increase, read-out: AK-based Prestwick Library Screening Results, E. coli (fold increase in extracellular AK activity)
  fold induction at 50 µM: 1.2

## C=CCN1CC[C@]23c4c5ccc(O)c4O[C@H]2C(=O)CC[C@@]3(O)[C@H]1C5 [Naloxone hydrochloride]
E. faecium; read-out: AK-based Prestwick Library Screening Results, E. faecium (increase in extracellular AK activity)
  fold induction at 50 µM: 0.8
[1]; read-out: AK-based Prestwick Library Screening Results, S. aureus (increase in extracellular AK activity)
  fold induction at 50 µM: 0.7
K. pneumoniae; read-out: AK-based Prestwick Library Screening Results, K. pneumoniae (increase in extracellular AK activity)
  fold induction at 50 µM: 0.6
[2]; read-out: AK-based Prestwick Library Screening Results, A. baumannii (increase in extracellular AK activity)
  fold induction at 50 µM: 0.8
P. aeruginosa; read-out: AK-based Prestwick Library Screening Results, P. aeruginosa (increase in extracellular AK activity)
  fold induction at 50 µM: 0.8
E. cloacae; read-out: AK-based Prestwick Library Screening Results, E. cloacae (increase in extracellular AK activity)
  fold induction at 50 µM: 1.1
E. coli; read-out: AK-based Prestwick Library Screening Results, E. coli (increase in extracellular AK activity)
  fold induction at 50 µM: 0.9

## COc1ncnc(NS(=O)(=O)c2ccc(N)cc2)c1OC [Sulfadoxine]
E. faecium; [3]
  fold induction at 50 µM: 1
[1]; [4]
  fold induction at 50 µM: 0.9
K. pneumoniae; [5]
  fold induction at 50 µM: 1
[2]; [6]
  fold induction at 50 µM: 2.9
P. aeruginosa; [7]
  fold induction at 50 µM: 1
E. cloacae; [8]
  fold induction at 50 µM: 1.3
E. coli; [9]
  fold induction at 50 µM: 1

## CC(=O)OCC(=O)[C@@]1(O)CC[C@H]2[C@@H]3CCC4=CC(=O)C=C[C@]4(C)[C@@]3(F)[C@@H](O)C[C@@]21C [Isoflupredone acetate]
E. faecium; [10]
  fold induction at 50 µM: 0.9
[1]; [11]
  fold induction at 50 µM: 0.4
K. pneumoniae; [12]
  fold induction at 50 µM: 0.5
[2]; [13]
  fold induction at 50 µM: 0.4
P. aeruginosa; [14]
  fold induction at 50 µM: 0.4
E. cloacae; [15]
  fold induction at 50 µM: 0.4
E. coli; [16]
  fold induction at 50 µM: 0.5
